The experiment concerns Plasmodium berghei. The experiment is described as follows: Antiplasmodial activity as survival against Plasmodium berghei ANKA infected mice (Mus musculus). The format is functional.

On to `NCCOP(=O)(O)OC[C@H]1O[C@H](O[C@@H]2[C@@H](OC[C@H]3O[C@H](O[C@H]4[C@H](O)[C@@H](N)[C@@H](O[C@@H]5[C@@H](O)[C@H](O)[C@@H](O)[C@H]6OP(=O)(O)O[C@H]65)O[C@@H]4CO)[C@@H](O)[C@@H](O)[C@@H]3O)O[C@H](CO)[C@@H](O)[C@@H]2O)[C@@H](O[C@H]2O[C@H](CO)[C@@H](O)[C@H](O)[C@@H]2O)[C@@H](O)[C@@H]1O`, for which the Survival is recorded as 75%.

These data come from ChEMBL document CHEMBL1153524, “2009 Claude S. Hudson Award in Carbohydrate Chemistry. Carbohydrates: a frontier in medicinal chemistry” (2009).
